From ChEMBL document CHEMBL1201862, “PubChem BioAssay data set” (2004)
Activity calls are given as the source filed them.

Experiments:
[1] = decrease of insulin promoter-GFP reporter – imaging, high-content screening, mouse beta cells (AID 1628); format: functional; details: MIN6
[2] = MIN6 cell viability loss – mouse insulinoma, cytotoxicity control, dose response (AID 2122); format: functional;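 note: confirmatory high-throughput counterscreen run to flag cytotoxic compounds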
[3] = target: T1, Dual specificity protein phosphatase 6 (Rattus norvegicus, UniProt Q64346)
T1 sequence (Q64346 whole entry): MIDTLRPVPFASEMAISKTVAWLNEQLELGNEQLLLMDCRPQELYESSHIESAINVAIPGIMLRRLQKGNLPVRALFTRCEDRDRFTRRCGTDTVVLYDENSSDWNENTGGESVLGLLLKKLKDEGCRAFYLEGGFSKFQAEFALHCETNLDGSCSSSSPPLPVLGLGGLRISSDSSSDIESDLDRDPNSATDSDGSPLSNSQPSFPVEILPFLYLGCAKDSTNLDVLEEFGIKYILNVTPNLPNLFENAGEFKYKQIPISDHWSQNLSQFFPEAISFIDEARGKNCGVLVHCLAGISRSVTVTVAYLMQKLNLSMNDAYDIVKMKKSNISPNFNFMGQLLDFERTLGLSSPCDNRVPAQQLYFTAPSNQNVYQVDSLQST

[4] = target: Glyceraldehyde-3-phosphate dehydrogenase (Homo sapiens, UniProt P04406)
Chain of Glyceraldehyde-3-phosphate dehydrogenase (P04406 whole entry): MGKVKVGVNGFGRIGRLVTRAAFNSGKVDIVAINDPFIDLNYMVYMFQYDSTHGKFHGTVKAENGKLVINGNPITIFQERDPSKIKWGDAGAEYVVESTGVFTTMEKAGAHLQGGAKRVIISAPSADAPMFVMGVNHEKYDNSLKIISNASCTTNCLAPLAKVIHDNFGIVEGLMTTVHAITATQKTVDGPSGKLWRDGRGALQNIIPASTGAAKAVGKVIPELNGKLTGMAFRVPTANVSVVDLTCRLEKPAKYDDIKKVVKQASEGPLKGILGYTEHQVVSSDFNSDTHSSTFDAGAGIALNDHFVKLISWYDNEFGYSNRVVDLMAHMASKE

[5] = target: Tyrosine-protein phosphatase non-receptor type 7 (Homo sapiens, UniProt P35236); format: functional
Chain of Tyrosine-protein phosphatase non-receptor type 7 (P35236 whole entry): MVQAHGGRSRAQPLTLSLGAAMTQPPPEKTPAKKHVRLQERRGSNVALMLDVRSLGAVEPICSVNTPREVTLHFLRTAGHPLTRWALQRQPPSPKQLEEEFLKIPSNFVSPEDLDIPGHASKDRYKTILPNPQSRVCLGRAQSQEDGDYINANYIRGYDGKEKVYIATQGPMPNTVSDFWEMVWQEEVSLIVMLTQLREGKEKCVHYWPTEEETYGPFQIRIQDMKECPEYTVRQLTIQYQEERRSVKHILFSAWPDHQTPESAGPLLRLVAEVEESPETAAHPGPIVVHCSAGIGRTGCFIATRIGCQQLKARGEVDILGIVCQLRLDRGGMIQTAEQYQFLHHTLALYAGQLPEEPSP

[6] = target: T1, Dual specificity protein phosphatase 6; format: functional
[7] = HEK-293T viability loss, compound-treated – cell-based, uHTS hits, cytotoxicity control for B/T-cell NF-kB inhibitor project, dose response (AID 489019); format: functional;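 note: IC50 reflects cytotoxicity as loss of cell viability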
[8] = system: INS1; test: INS-1E survival protection against cytokine death – cell-based, luminescence, retest, dose response (AID 449756); format: functional; details: Rattus norvegicus;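 note: cell death triggered by IL-1 beta plus TNF-alpha plus IFN-gamma mixture; protective hits raise ATP signal compared with cytokine alone wells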
[9] = system: Jurkat; test: blockers of NF-kB activation in T cells – Jurkat, luciferase reporter, luminescence, B- and T-cell, dose response (AID 489004); format: functional, cell-based; details: Homo sapiens;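 note: NF-kB luciferase reporter Jurkat cells stimulated with PMA plus ionomycin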
[10] = target: Nuclear receptor ROR-gamma (Homo sapiens, UniProt P51449); test: LXR, FXR and VP16 reporter activity, cell-based, luciferase reporter, ROR modulator project, late-stage follow-up, panel member RORG (AID 2117)
Chain of Nuclear receptor ROR-gamma (P51449 whole entry): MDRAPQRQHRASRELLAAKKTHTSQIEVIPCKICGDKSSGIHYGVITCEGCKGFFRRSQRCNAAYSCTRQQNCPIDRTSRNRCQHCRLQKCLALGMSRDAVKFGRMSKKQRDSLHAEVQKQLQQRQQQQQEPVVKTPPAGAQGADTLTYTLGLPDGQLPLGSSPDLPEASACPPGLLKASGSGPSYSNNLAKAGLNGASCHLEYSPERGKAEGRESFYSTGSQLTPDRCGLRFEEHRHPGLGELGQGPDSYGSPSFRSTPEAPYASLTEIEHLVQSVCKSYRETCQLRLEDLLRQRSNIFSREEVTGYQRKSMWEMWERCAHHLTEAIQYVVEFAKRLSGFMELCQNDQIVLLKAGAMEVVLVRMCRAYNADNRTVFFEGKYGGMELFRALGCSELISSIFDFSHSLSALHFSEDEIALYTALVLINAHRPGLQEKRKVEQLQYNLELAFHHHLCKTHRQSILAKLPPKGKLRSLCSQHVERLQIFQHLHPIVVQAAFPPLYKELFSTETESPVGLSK

[11] = target: Nuclear receptor ROR-alpha (Homo sapiens, UniProt P35398); test: LXR, FXR and VP16 reporter activity, cell-based, luciferase reporter, ROR modulator project, late-stage follow-up, panel member RORA (AID 2117)
Chain of Nuclear receptor ROR-alpha (P35398 whole entry): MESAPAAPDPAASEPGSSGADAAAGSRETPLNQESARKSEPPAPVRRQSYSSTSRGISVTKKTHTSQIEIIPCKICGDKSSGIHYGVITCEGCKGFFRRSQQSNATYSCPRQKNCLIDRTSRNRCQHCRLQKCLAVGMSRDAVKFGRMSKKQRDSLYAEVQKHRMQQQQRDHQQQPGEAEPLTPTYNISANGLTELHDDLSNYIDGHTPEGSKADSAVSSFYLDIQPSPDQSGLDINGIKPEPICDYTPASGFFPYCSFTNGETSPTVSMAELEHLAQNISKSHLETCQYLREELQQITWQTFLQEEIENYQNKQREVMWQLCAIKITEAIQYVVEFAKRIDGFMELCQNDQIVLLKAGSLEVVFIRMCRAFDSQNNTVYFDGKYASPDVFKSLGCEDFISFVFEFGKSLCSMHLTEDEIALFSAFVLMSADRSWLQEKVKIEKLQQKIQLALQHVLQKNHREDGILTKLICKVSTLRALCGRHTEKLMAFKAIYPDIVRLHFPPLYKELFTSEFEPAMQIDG

[12] = system: Candida albicans; test: Candida growth inhibition combined with fluconazole – CaCi-2 strain, Alamar Blue, dry powder, set 3, dose response (AID 488907); format: functional, organism-based
[13] = target: Delta-type opioid receptor (Homo sapiens, UniProt P41143); test: Counterscreen for agonists of heterodimerization of the mu 1 (OPRM1) and delta 1 (OPRD1) opioid receptors: Luminescence-based cell-based high throughput dose response assay to identify agonists of OPRD1 homodimerization. [Related pubchem assays (depositor defined):AID504326, AID504355, AID504692, AID504904, AID504905]; format: functional
Chain of Delta-type opioid receptor (P41143 whole entry): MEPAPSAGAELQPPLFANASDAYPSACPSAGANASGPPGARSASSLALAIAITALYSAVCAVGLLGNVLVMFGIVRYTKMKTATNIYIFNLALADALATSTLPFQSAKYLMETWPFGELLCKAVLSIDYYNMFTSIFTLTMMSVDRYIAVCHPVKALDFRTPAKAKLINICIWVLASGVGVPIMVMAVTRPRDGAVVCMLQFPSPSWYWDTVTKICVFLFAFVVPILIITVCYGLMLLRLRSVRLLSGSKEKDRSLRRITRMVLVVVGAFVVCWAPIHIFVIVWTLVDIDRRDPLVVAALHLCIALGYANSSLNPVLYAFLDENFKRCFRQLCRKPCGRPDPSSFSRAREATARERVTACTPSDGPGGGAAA

[14] = target: Mu-type opioid receptor (Homo sapiens, UniProt P35372); test: Counterscreen for agonists of heterodimerization of the mu 1 (OPRM1) and delta 1 (OPRD1) opioid receptors: Luminescence-based cell-based high throughput dose response assay to identify agonists of OPRM1 homodimerization.; format: functional;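 note: U2OS cells expressing OPRM1 and beta-arrestin as split beta-galactosidase partners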
Chain of Mu-type opioid receptor (P35372 whole entry): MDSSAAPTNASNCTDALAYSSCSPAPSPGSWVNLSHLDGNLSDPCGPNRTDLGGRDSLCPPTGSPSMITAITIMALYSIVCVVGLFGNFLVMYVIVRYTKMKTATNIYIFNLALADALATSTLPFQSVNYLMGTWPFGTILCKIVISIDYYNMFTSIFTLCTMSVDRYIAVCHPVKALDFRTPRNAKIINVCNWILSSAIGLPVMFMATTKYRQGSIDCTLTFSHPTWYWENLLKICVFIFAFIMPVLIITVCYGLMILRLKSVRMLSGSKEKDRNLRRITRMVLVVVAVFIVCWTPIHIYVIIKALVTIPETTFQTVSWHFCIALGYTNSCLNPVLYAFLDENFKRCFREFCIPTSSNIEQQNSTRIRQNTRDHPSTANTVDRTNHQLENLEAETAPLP

[15] = target: 5-hydroxytryptamine receptor 5A (Homo sapiens, UniProt P47898); test: Counterscreen for agonists of OPRM1-OPRD1 heterodimerization: luminescence-based cell-based high throughput dose response assay to identify agonists of 5-hydroxytryptamine (serotonin) 5A receptor (HTR5A). [Related pubchem assays (depositor defined):AID504326, AID504355, AID504692, AID504904, AID504905]; format: functional
Chain of 5-hydroxytryptamine receptor 5A (P47898 whole entry): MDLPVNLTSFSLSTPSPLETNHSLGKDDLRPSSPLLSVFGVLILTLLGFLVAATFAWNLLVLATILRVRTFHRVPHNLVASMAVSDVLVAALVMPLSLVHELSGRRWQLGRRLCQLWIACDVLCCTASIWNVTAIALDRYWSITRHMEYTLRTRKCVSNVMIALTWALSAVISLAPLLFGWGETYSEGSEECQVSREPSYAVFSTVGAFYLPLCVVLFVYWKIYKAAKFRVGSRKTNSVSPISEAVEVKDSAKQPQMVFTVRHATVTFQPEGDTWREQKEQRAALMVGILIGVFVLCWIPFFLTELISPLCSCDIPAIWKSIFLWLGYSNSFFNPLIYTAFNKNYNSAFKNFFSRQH

In the case of COc1ccc(OCC(O)Cn2c(=N)n(CCN3CCCCC3)c3ccccc32)cc1 (stereo not given), the IC50 [1] is reported as 2.41 µM (active) and the IC50 [2] is reported as 4.23 µM (active).
In the case of NC(=O)[C@H](Cc1ccccc1)n1c(=O)n(Cc2ccc(Br)cc2)c(=O)n(-c2ccccc2)c1=O, the IC50 [3] is reported as > 100 µM (inactive), the IC50 [4] is reported as > 100 µM (not active) and the IC50 [5] is reported as > 100 µM (not active). The IC50 [6] was > 100 µM (inactive).
In the case of Cc1ccc(NC(=O)COc2ccc(N(C)C(=O)C(C)(C)C)cc2)cc1S(=O)(=O)N1CCCCC1, the IC50 [7] is reported as > 80 µM (inactive), the AC50 [8] is reported as 5.61 µM (active) and the IC50 [9] is reported as 8.2 µM (active).
For O=S(=O)(Nc1ccc(C(O)(C(F)(F)F)C(F)(F)F)cc1)c1cccc2cccnc12, the IC50 [10] was > 20 µM (inactive) and the IC50 [11] was > 20 µM (inactive).
In the case of CC(C)C(=O)N1CCN(c2ccccn2)CC1, the AC50 [12] is reported as 0.961 µM (active).
In the case of Cc1ccc(CSCC(=O)N/N=C/c2sccc2C)cc1, the EC50 [13] is reported as > 92.5 µM (inactive), the EC50 [14] is reported as 42.8 µM (inactive) and the EC50 [15] is reported as > 92.5 µM (inactive).
